Measurements reported in patent publication US8501752B2, “Methods for treating cancer and other pathological proliferating disorders by inhibiting mitosis using pyrrolo[2,3-d]pyrimidines” (Duquesne University of the Holy Ghost, priority 2005, dated 2013).
“Also recorded” adds a separate entry of the source. Where two headings read alike, the source gives them in different places.

Key:
[1] = tested on: MCF-7 cells; assay: Cytotoxicity, drug-sensitive MCF-7 cells
Description: (§2) These cell lines are resistant to anticancer drugs due to overexpression of the transport proteins P-glycoprotein or MRP1.

[2] = tested on: MCF-7/VP cells; assay: Cytotoxicity, MCF-7/VP cells that overexpress MRP1; details: for Resistance (MCF-7/VP relative to MCF-7): MRP1
Description: as §2

[3] = tested on: NCI/ADR cells; assay: Cytotoxicity, NCI/ADR cells that overexpress P-glycoprotein; details: for Resistance (NCI/ADR relative to MCF-7): P-glycoprotein
Description: as §2

[4] = tested on: T24, MCF-7, NCI/ADR, MCF-7/VP; assay: Cytotoxicity, panel of human tumor cell lines of Table 3 (text summaries)
Description: as §2

[5] = tested on: HL-60 human promyelocytic leukemia cells; assay: Flow cytometric cell cycle phase distribution; assay type: cell-based; details: 24 hours treatment; for increase of the percentage of cells in the G2/M phases: HL-60; for cell cycle distribution, G2/M / cell cycle distribution, G9/G1 / cell cycle distribution, S: percentage of HL-60 cells
Protocol: Flow cytometric analyses were used to assess the effects of Compound 1 and various antimicrotubule drugs on the cell cycle phase distributions of HL-60 human promyelocytic leukemia cells. The percentage of cells in the G2/M phases were increased approximately 2-fold by treatment of the cells for 24 hours with either TAXOL (paclitaxel), vinblastine, colchicine, or Compound 1.

[6] = tested on: T24 human bladder carcinoma cells; assay: Cytotoxicity, T24 cells; assay type: cell-based; details: for IC50: mean ± SEM for 3 experiments
[7] = target: T1, P-glycoprotein (Homo sapiens, UniProt P08183); assay: P-glycoprotein antagonism: sensitivity of NCI/ADR cells to vinblastine; assay type: cell-based; details: for effect on P-glycoprotein-mediated resistance (in words): absence or presence of 50 nM vinblastine
T1 construct: NCI/ADR cells that overexpress P-glycoprotein; endogenous in cells; host or cells: NCI/ADR cells
T1 sequence (P08183 whole entry): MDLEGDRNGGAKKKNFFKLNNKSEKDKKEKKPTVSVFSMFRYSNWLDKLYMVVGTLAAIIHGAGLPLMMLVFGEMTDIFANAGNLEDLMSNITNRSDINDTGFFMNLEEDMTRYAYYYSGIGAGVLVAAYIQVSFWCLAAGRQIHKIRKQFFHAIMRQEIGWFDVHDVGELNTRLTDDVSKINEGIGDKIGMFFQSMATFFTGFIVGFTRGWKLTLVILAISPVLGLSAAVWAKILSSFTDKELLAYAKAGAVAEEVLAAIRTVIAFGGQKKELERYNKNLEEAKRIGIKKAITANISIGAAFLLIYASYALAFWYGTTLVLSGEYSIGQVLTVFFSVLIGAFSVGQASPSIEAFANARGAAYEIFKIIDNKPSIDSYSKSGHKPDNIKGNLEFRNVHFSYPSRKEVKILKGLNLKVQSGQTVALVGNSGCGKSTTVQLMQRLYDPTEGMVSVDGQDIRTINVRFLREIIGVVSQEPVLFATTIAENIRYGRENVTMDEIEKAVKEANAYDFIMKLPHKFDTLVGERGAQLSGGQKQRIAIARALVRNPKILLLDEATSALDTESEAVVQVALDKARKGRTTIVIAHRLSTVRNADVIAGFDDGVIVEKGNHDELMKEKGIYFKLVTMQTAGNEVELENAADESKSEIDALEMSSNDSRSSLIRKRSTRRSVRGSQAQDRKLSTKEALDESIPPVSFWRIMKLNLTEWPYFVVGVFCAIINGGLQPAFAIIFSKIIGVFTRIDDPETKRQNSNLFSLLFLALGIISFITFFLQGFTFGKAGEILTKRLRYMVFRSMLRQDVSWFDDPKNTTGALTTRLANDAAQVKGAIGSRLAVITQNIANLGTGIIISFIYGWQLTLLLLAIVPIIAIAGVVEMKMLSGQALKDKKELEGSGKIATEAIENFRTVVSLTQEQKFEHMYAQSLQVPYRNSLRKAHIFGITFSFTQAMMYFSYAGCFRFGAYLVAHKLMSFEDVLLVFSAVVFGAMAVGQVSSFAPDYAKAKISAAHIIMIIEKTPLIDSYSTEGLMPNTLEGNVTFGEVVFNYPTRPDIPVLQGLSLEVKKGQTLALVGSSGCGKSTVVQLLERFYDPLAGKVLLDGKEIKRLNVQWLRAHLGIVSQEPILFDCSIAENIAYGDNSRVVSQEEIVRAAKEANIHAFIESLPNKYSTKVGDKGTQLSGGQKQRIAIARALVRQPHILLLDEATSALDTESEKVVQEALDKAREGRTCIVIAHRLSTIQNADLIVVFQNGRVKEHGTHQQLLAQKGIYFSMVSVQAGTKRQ
Description: To determine if this is due to inhibition of drug transport activity by these proteins, the effects of these compounds on P-glycoprotein were further characterized. The effects of the compounds on the sensitivity of NCI/ADR cells to vinblastine and of MCF-7/VP cells to vincristine were examined to evaluate antagonism of P-glycoprotein and MRP1, respectively. FIGS. 4a-b present graphs of antagonism score versus concentration for P-glycoprotein and MRP1, respectively.
The Pgp antagonism score is calculated as the percentage survival of cells in the absence of vinblastine/percentage survival in the presence of vinblastine. […] The MRP1 antagonism score is calculated as the percentage survival of cells in the absence of vincristine/percentage survival in the presence of vincristine. […] Concentrations of Compounds 1-5 above their IC50 toward MCF-7 cells are not indicated. Data for one of three similar experiments is shown.

[8] = tested on: NCI 60 human tumor cell lines; assay: NCI IVCLSP growth inhibition, whole panel (text summaries); assay type: cell-based; details: NCI 60 tumor panel
Protocol: FIG. 1 presents nine compounds that were tested using the National Cancer Institute (NCI) 60 human tumor cell lines. The cells lines, which represent leukemia, melanoma, and cancers of the lung, colon, brain, ovary, breast, prostate, and kidney, are listed in Table 1.
Compounds 1-9 were tested according to the NCI Developmental Therapeutics Program (DTP) In Vitro Cell Line Screening Project (IVCLSP). […] Methodology for testing under the IVCLSP is as follows: The human tumor cell lines of the cancer screening panel are grown in RPMI 1640 medium containing 5% fetal bovine serum and 2 mM L-glutamine. For a typical screening experiment, cells are inoculated into 96 well microtiter plates in 100 μL at plating densities ranging from 5,000 to 40,000 cells/well depending on the doubling time of individual cell lines. After cell inoculation, the microtiter plates are incubated at 37° C., 5% CO2, 95% air and 100% relative humidity for 24 h prior to addition of experimental drugs.
After 24 h, two plates of each cell line are fixed in situ with TCA, to represent a measurement of the cell population for each cell line at the time of drug addition (Tz). Experimental drugs are solubilized in dimethyl sulfoxide at 400-fold the desired final maximum test concentration and stored frozen prior to use. At the time of drug addition, an aliquot of frozen concentrate is thawed and diluted to twice the desired final maximum test concentration with complete medium containing 50 μg/ml gentamicin. Additional four, 10-fold or ½ log serial dilutions are made to provide a total of five drug concentrations plus control. Aliquots of 100 μl of these different drug dilutions are added to the appropriate microtiter wells already containing 100 μl of medium, resulting in the required final drug concentrations.
Following drug addition, the plates are incubated for an additional 48 h at 37° C., 5% CO2, 95% air, and 100% relative humidity. For adherent cells, the assay is terminated by the addition of cold TCA. Cells are fixed in situ by the gentle addition of 50 μl of cold 50% (w/v) TCA (final concentration, 10% TCA) and incubated for 60 minutes at 4° C. The supernatant is discarded, and the plates are washed five times with tap water and air dried. Sulforhodamine B (SRB) solution (100 μl) at 0.4% (w/v) in 1% acetic acid is added to each well, and plates are incubated for 10 minutes at room temperature. After staining, unbound dye is removed by washing five times with 1% acetic acid and the plates are air dried. Bound stain is subsequently solubilized with 10 mM trizma base, and the absorbance is read on an automated plate reader at a wavelength of 515 nm. For suspension cells, the methodology is the same except that the assay is terminated by fixing settled cells at the bottom of the wells by gently adding 50 μl of 80% TCA (final concentration, 16% TCA). Using the seven absorbance measurements [time zero, (Tz), control growth, (C), and test growth in the presence of drug at the five concentration levels (Ti)], the percentage growth is calculated at each of the drug concentrations levels. Percentage growth inhibition is calculated as: [(Ti−Tz)/(C−Tz)]×100 for concentrations for which Ti>/=Tz [(Ti−Tz)/Tz]×100 for concentrations for which Ti<Tz.
Three dose response parameters are calculated for each experimental agent. […] The drug concentration resulting in total growth inhibition (TGI) is calculated from Ti=Tz. […]

[9] = tested on: A-10 rat smooth muscle cells; assay: Microtubule structure, indirect immunofluorescence, A-10 cells; assay type: cell-based; details: 24 hours; 625 nM TAXOL, 167 nM vinblastine, 900 nM Compound 1
Protocol: Because of the morphological effects of Compound 1 on cultured cells and the NCI COMPARE analysis results described above, the effects of vinblastine, TAXOL (paclitaxel), and Compound 1 on microtubule structure were examined. For these studies, A-10 rat smooth muscle cells were used since they grow as flat monolayers that are amenable to imaging. The A-10 cells were treated for 24 hours with EtOH (control), 625 nM TAXOL (paclitaxel), 167 nM vinblastine, and 900 nM of Compound 1. Microtubules were then visualized by indirect immunofluoresence staining with B-tubulin antibodies. FIGS. 2a-d present representative fields for the control, TAXOL (paclitaxel), vinblastine, and Compound 1 (“149”), respectively. None of these compounds affected the morphology of stress fibers composed of microfilaments.

[10] = tested on: p53; assay: Western blot, p53 expression in MCF-7 cells; assay type: cell-based, human; details: 24 hours, various concentrations
Protocol: (§1) To further characterize the cell cycle effects of Compound 1 on human tumor cells, MCF-7 cells were treated for 24 hours with various concentrations of Compound 1, vinblastine, or TAXOL (paclitaxel). Cells were then harvested, lysed, and analyzed for levels of expression of p53 and WAF1 by Western Blot analyses. […] Compound 1 is identified as “149” in these figures. […] None of these treatments affected the expression of bcl-2 or P-tubulin in the MCF-7 cells.

[11] = tested on: WAF1; assay: Western blot, WAF1 expression in MCF-7 cells; assay type: cell-based, human; details: 24 hours, various concentrations
Protocol: as §1

[12] = read-out: Cytotoxicity IC50, MCF-7, mean ± SEM for 3 experiments
[13] = read-out: Cytotoxicity IC50, MCF-7/VP, mean ± SEM for 3 experiments
[14] = read-out: Cytotoxicity IC50, NCI/ADR, mean ± SEM for 3 experiments
[15] = Homo sapiens, MCF7, read-out: drug sensitivity (IC50), MCF-7
[16] = Homo sapiens, MCF7-VP, read-out: drug sensitivity (IC50), MCF-7/VP
[17] = Homo sapiens, NCI/ADR-RES, read-out: drug sensitivity (IC50), NCI/ADR

With `N.N.[Cl][Pt][Cl]` [Cisplatin, cisplatin, reference compound] the IC50 ([1]; read-out: drug sensitivity (IC50), MCF-7, Table 4, mean ± SEM for 3 experiments) was 11.5 ± 4.1 µM, the “Resistance (MCF-7/VP relative to MCF-7)” value [2] was 0.6 and the IC50 ([2]; read-out: drug sensitivity (IC50), MCF-7/VP, Table 4, MRP1 overexpressing, mean ± SEM for 3 experiments) was 7 ± 2.9 µM. For the same compound, the “Resistance (NCI/ADR relative to MCF-7)” value [3] was 1.1, the IC50 ([3]; read-out: drug sensitivity (IC50), NCI/ADR, Table 4, P-glycoprotein overexpressing, mean ± SEM for 3 experiments) was 12.2 ± 4.2 µM and the “effect of P-glycoprotein / MRP1 overexpression on cell sensitivity (in words)” value [4] was “insensitive to transporter expression”.

For `COc1cc2c(c(OC)c1OC)-c1ccc(OC)c(=O)cc1[C@@H](NC(C)=O)CC2` [Colchicine, colchicine], the “increase of the percentage of cells in the G2/M phases” value [5] was “approximately 2 fold”, the “cell cycle distribution, G2/M” value [5] was 11.9 ± 0.3 and the “cell cycle distribution, G9/G1” value [5] was 84.1 ± 0.7. The “cell cycle distribution, S” value [5] was 4.0 ± 1.4.

`COc1ccc(CCc2cn(Cc3ccccc3)c3nc(N)nc(C)c23)cc1` [Compound 2] was tested, and the “change of cytotoxic potency by substitution (in words)” value ([6]; T24, relative to unsubstituted Compound 5) was “decreased the cytotoxic potency”, the IC50 [6] was 31.7 ± 1.7 µM and the “effect on P-glycoprotein-mediated resistance (in words)” value [7] was “dose-dependent sensitization”. For the same compound, the IC50 [1, 12] was 13 ± 3.5 µM, the IC50 [2, 13] was 22.7 ± 3.7 µM and the IC50 [3, 14] was 21.7 ± 4.4 µM.

`COc1ccccc1CCc1cn(Cc2ccccc2)c2nc(N)nc(C)c12` [Compound 4] was tested, and the “GI50 values, level across the tumor cell lines (in words)” value [8] was “micromolar to millimolar range”, the IC50 [6] was 2.5 ± 0.3 µM and the “more potent than the others in reversing P-glycoprotein-mediated resistance” value ([7]; 50 nM vinblastine) was “approximately 10 fold”. For the same compound, the “effect on P-glycoprotein-mediated resistance (in words)” value [7] was “dose-dependent sensitization”, the “effect on P-glycoprotein-mediated resistance (in words)” value ([7]; listed as 2-OMe analog) was “effective at reversing P-glycoprotein mediated resistance” and the IC50 [1, 12] was 2.3 ± 0.6 µM. The IC50 [2, 13] was 2.6 ± 0.1 µM, the IC50 [3, 14] was 2.7 ± 0.4 µM and the “cytotoxic potency, better than the 3- or 4-OMe” value [4] was “about 10 times”. The “cytotoxic potency, better than the unsubstituted phenyl analog Compound 5” value [4] was about 5 times, the “effect of P-glycoprotein / MRP1 overexpression on cell sensitivity (in words)” value [4] was “eliminated any resistance due to overexpression of either P-glycoprotein or MRP1” and the “less potent as an antimitotic agent than the 3,4,5-triOMe analog” value [4] was “about 10 times”. For the same compound, the “cytotoxic potency (in words)” value ([4]; all tested cell lines) was “substantially increased the potency toward all of the tested cell lines”.

With `Cc1nc(N)nc2c1c(CCc1ccccc1)cn2Cc1ccccc1` [Compound 5] the “GI50 values, level across the tumor cell lines (in words)” value [8] was “millimolar or less range for 52 of the tumor cell lines; also recorded: micromolar GI50 values for three of the tumor cell lines”, the IC50 [6] was 12.7 ± 2.3 µM and the “effect on P-glycoprotein-mediated resistance (in words)” value [7] was “dose-dependent sensitization”. The IC50 [1, 12] was 10.7 ± 4.7 µM, the IC50 [2, 13] was 118 ± 6 µM and the IC50 [3, 14] was 18.2 ± 7.4 µM.

For `CC(=O)O[C@H]1C(=O)[C@@]2(C)[C@H]([C@H](OC(=O)c3ccccc3)[C@]3(O)C[C@H](OC(=O)[C@H](O)[C@@H](NC(=O)c4ccccc4)c4ccccc4)C(C)=C1C3(C)C)[C@]1(OC(C)=O)CO[C@@H]1C[C@@H]2O` [TAXOL (paclitaxel), paclitaxel], the “effect on microtubule structure (in words)” value [9] was “promoted increased staining of microtubule clusters”, the “increase of the percentage of cells in the G2/M phases” value [5] was “approximately 2 fold” and the “cell cycle distribution, G2/M” value [5] was 10.5 ± 0.1. The “cell cycle distribution, G9/G1” value [5] was 67.3 ± 0.4, the “cell cycle distribution, S” value [5] was 22.2 ± 0.4 and the “level of expression of p53 (in words)” value [10] was “marked increases”. The “level of expression of WAF1 (in words)” value [11] was “marked increases”, the IC50 [1, 15] was 0.0025 ± 0.0006 µM and the IC50 [2, 16] was 0.0028 ± 0.0006 µM. For the same compound, the “Resistance (MCF-7/VP relative to MCF-7)” value [2] was 1.1, the IC50 [3, 17] was 2.7 ± 0.5 µM and the “Resistance (NCI/ADR relative to MCF-7)” value [3] was 1080.

With `CC[C@]1(O)C[C@H]2CN(CCc3c([nH]c4ccccc34)[C@@](C(=O)OC)(c3cc4c(cc3OC)N(C=O)[C@H]3[C@@](O)(C(=O)OC)[C@H](OC(C)=O)[C@]5(CC)C=CCN6CC[C@]43[C@@H]65)C2)C1` [Vincristine, vincristine, reference compound] the IC50 [1, 15] was 0.0006 ± 0.0001 µM, the IC50 [2, 16] was 0.0093 ± 0.0014 µM and the “Resistance (MCF-7/VP relative to MCF-7)” value [2] was 15.5. The IC50 [3, 17] was 0.1 µM, the “Resistance (NCI/ADR relative to MCF-7)” value [3] was 167 and the “effect of P-glycoprotein / MRP1 overexpression on cell sensitivity (in words)” value [4] was “overexpression of MRP1 also confers substantial resistance”.
